Like-named read-outs stand apart in the source and are kept apart here.
Assays:
[1] = tested on: Melanocytes (B16 cell line); test: Inhibition of melanin synthesis in B16 melanocytes (melanin by optical density at 475 nm, cellular proteins by Bradford); format: cell-based, mouse; settings: for effect on the rate of released melanin / inhibition of melanin synthesis: B16 melanocytes, at concentrations not toxic to human fibroblasts; for Rate of Melanin / Rate of cellular proteins: B16, 3 days
From the text: Melanin is the pigment responsible for the colour of skin and hairs. Melanin synthesis takes place in specific organelles so called melanosomes in human melanocytes located in the basal layer of the human epidermis. This synthesis begins by oxidation of tyrosine to DOPA (dihydroxy-phenyl-alanine) by tyrosinase and then DOPA polymerises to melanin which is stored in melanosomes.
Melanocytes (B16 cell line: B16 is the name of the mouse melanoma cells used in this test.) were inoculated in standard cell culture medium of foetal calf serum (FCS). […] Uridine palmitate and ulidine stearate were added to the culture medium starting from a stock solution at 1% (w/v) in DMSO. After an incubation of 3 days, the number of viable cells was determined by the evaluation of the levels of cellularproteins (Bradford's method) and the level of synthesized melanin was measured by recording the optical density at 475 nm of cell's homogenate. The results are expressed in table 4.

human fibroblasts [2] = test: Non-toxicity on quiescent human fibroblasts (second experiment: DNA, ATP, proteins, GSH/proteins); format: cell-based; settings: for ATP / DNA / GSH/proteins / Proteins: quiescent fibroblasts, 3 days; for modification of growth, energetic metabolism and protein metabolism of the fibroblasts: human fibroblasts in vitro
Method: Uridine palmitate and uridine stearate were added in the culture medium starting from a stock solution at 1% (w/v) in DMSO. After an incubation of 3 days the number of viable cells was determined by evaluation of the levels of cellular DNA (fluorescent probe), ATP, proteins (Bradford's method) and the rate of cellular GSH (GSH is glutathione) normalised to the level of cellular proteins.

human fibroblasts [3] = settings: for Proteins (level of cellular proteins) / LD50: 3 days; for LD50: human
Method: In a first experiment, human fibroblasts were inoculated in a standard cell culture medium of foetal calf serum (or FCS). After an incubation of 1 day at 37° C. under an atmosphere of air, enriched to a carbon dioxide content of 5%, the growth medium was exchanged for a standard medium with a range of concentrations of uridine, uridine palmitate and uridine stearate.

With `CCCCCCCCCCCCCCCC(=O)O[C@@H]1[C@H](O)[C@@H](CO)O[C@H]1n1ccc(=O)[nH]c1=O` [Mono-O-palmitoyl uridine, Mono-O-Palmitoyl Uridine] the “effect on the rate of released melanin / inhibition of melanin synthesis” value [1] was “strongly decreased the rate of released melanin”, the “Rate of Melanin” value ([1]; dose 0.001 % w/v) was 98 % against control and the “Rate of cellular proteins” value ([1]; dose 0.001 % w/v) was 100 % against control. For the same molecule, the “Rate of Melanin” value ([1]; dose 0.003 % w/v) was 69 % against control, the “Rate of cellular proteins” value ([1]; dose 0.003 % w/v) was 95 % against control and the “Rate of Melanin” value ([1]; dose 0.01 % w/v) was 44 % against control. The “Rate of cellular proteins” value ([1]; dose 0.01 % w/v) was 110 % against control, the ATP (human fibroblasts [2]; dose 0,001 % w/v) was 111 %/control and the DNA (human fibroblasts [2]; dose 0,001 % w/v) was 92 %/control. It also gave a GSH/proteins (human fibroblasts [2]; dose 0,001 % w/v) of 103 %/control, a Proteins (human fibroblasts [2]; dose 0,001 % w/v) of 98 %/control and an ATP (human fibroblasts [2]; dose 0,003 % w/v) of 86 %/control. It also gave a DNA (human fibroblasts [2]; dose 0,003 % w/v) of 83 %/control, a GSH/proteins (human fibroblasts [2]; dose 0,003 % w/v) of 108 %/control and a Proteins (human fibroblasts [2]; dose 0,003 % w/v) of 91 %/control. The “modification of growth, energetic metabolism and protein metabolism of the fibroblasts” value (human fibroblasts [2]) was “not modified the growth of the fibroblasts”, the “toxic effects on growing human fibroblasts cultured in vitro” value (human fibroblasts [3]) was “not shown any toxic effects” and the “Proteins (level of cellular proteins)” value (human fibroblasts [3]; dose 0.003 % w/v) was 92 %/control. For the same molecule, the “Proteins (level of cellular proteins)” value (human fibroblasts [3]; dose 0.01 % w/v) was 97 %/control and the LD50 (human fibroblasts [3]) was greater than 0.01% w/v.

In the case of `CCCCCCCCCCCCCCCCCC(=O)O[C@@H]1[C@H](O)[C@@H](CO)O[C@H]1n1ccc(=O)[nH]c1=O` [Mono-O-stearoyl uridine, Mono-O-Stearoyl Uridine], the “effect on the rate of released melanin / inhibition of melanin synthesis” value [1] is reported as “strongly decreased the rate of released melanin”, the “Rate of Melanin” value ([1]; dose 0.001 % w/v) is reported as 84 % against control and the “Rate of cellular proteins” value ([1]; dose 0.001 % w/v) is reported as 98 % against control. The “Rate of Melanin” value ([1]; dose 0.003 % w/v) was 65 % against control, the “Rate of cellular proteins” value ([1]; dose 0.003 % w/v) was 92 % against control and the “Rate of Melanin” value ([1]; dose 0.01 % w/v) was 19 % against control. For the same molecule, the “Rate of cellular proteins” value ([1]; dose 0.01 % w/v) was 99 % against control, the ATP (human fibroblasts [2]; dose 0,0015 % w/v) was 91 %/control and the DNA (human fibroblasts [2]; dose 0,0015 % w/v) was 94 %/control. The GSH/proteins (human fibroblasts [2]; dose 0,0015 % w/v) was 98 %/control, the Proteins (human fibroblasts [2]; dose 0,0015 % w/v) was 96 %/control and the ATP (human fibroblasts [2]; dose 0,005 % w/v) was 92 %/control. The DNA (human fibroblasts [2]; dose 0,005 % w/v) was 100 %/control, the GSH/proteins (human fibroblasts [2]; dose 0,005 % w/v) was 135 %/control and the Proteins (human fibroblasts [2]; dose 0,005 % w/v) was 95 %/control. For the same molecule, the “modification of growth, energetic metabolism and protein metabolism of the fibroblasts” value (human fibroblasts [2]) was “not modified the growth of the fibroblasts”, the “toxic effects on growing human fibroblasts cultured in vitro” value (human fibroblasts [3]) was “not shown any toxic effects” and the “Proteins (level of cellular proteins)” value (human fibroblasts [3]; dose 0.0005 % w/v) was 90 %/control. For the same molecule, the “Proteins (level of cellular proteins)” value (human fibroblasts [3]; dose 0.0015 % w/v) was 87 %/control and the LD50 (human fibroblasts [3]) was greater than 0.01% w/v.

With `CCCC(=O)OC[C@H]1O[C@@H](n2ccc(=O)[nH]c2=O)[C@H](OC(=O)CCC)[C@@H]1OC(=O)CCC` [Tri-O-Butyryl-Uridine, reference compound] the “effect on the rate of released melanin / inhibition of melanin synthesis” value [1] was “no or only a very poor effect”, the “Rate of Melanin” value ([1]; dose 0.001 % w/v) was 106 % against control and the “Rate of cellular proteins” value ([1]; dose 0.001 % w/v) was 100 % against control. For the same molecule, the “Rate of Melanin” value ([1]; dose 0.003 % w/v) was 106 % against control, the “Rate of cellular proteins” value ([1]; dose 0.003 % w/v) was 106 % against control and the “Rate of Melanin” value ([1]; dose 0.01 % w/v) was 105 % against control. The “Rate of cellular proteins” value ([1]; dose 0.01 % w/v) was 103 % against control.

With `O=c1ccn([C@@H]2O[C@H](CO)[C@@H](O)[C@H]2O)c(=O)[nH]1` [Uridine, uridine, reference compound] the “effect on the rate of released melanin / inhibition of melanin synthesis” value [1] was “no or only a very poor effect”, the “Rate of Melanin” value ([1]; dose 0.03 % w/v) was 92 % against control and the “Rate of cellular proteins” value ([1]; dose 0.03 % w/v) was 94 % against control. For the same molecule, the “Rate of Melanin” value ([1]; dose 0.1 % w/v) was 92 % against control, the “Rate of cellular proteins” value ([1]; dose 0.1 % w/v) was 97 % against control and the ATP (human fibroblasts [2]; dose 0,01 % w/v) was 100 %/control. It also gave a DNA (human fibroblasts [2]; dose 0,01 % w/v) of 103 %/control, a GSH/proteins (human fibroblasts [2]; dose 0,01 % w/v) of 107 %/control and a Proteins (human fibroblasts [2]; dose 0,01 % w/v) of 100 %/control. The ATP (human fibroblasts [2]; dose 0,03 % w/v) was 89 %/control, the DNA (human fibroblasts [2]; dose 0,03 % w/v) was 94 %/control and the GSH/proteins (human fibroblasts [2]; dose 0,03 % w/v) was 102 %/control. The Proteins (human fibroblasts [2]; dose 0,03 % w/v) was 104 %/control, the “Proteins (level of cellular proteins)” value (human fibroblasts [3]; dose 0.03 % w/v) was 104 %/control and the “Proteins (level of cellular proteins)” value (human fibroblasts [3]; dose 0.1 % w/v) was 99 %/control.

Source: patent US20070160554A1, “Acyl ribonucleosides and acyl deoxyribonucleosides, compositions of, and methods of making same” (COGNIS IP MANAGEMENT GMBH, priority 2003, published 2007)
